Test system: microbial proteins in vaginal fluid
Assay: MS/MS proteomic analysis of vaginal fluid pools before and after rifaximin/placebo treatment: microbial proteins
Format: in vivo
Experimental: Proteomic analysis was performed on 9 pools of vaginal isolates, grouped according to the status of the BV infection: • H pool (from 41 healthy women); BV pool (from 39 BV-affected women); • A-R pool (from 2 women who were in remission after rifaximin treatment-group A); • A-N pool (from 8 women who were not in remission after rifaximin treatment-group A); • B-R pool (from 5 women who were in remission after rifaximin treatment-group B); • B-N pool (from 5 women who were not in remission after rifaximin treatment-group B); • C-R pool (from 4 women who were in remission after rifaximin treatment-group C); • C-N (from 5 women who were not in remission after rifaximin treatment-group C); • D-N (from 10 women who were not in remission after placebo treatment-group D). Scheme of the vaginal fluids collected for testing the diagnostic method is represented in FIG. 1.
In these figures are reported the peptides in the fractionated pools of healthy women, women affected by BV and peptides of women treated with rifaximin. The treatment with rifaximin was at dosage of 100 mg/day for 5 days; (remission, A-R; no remission, A-N), 25 mg/5 days (remission, B-R; no remission, B-N), 100 mg/2 days (remission, C-R; no remission, C-N), and placebo for 5 days (D-N). Two types of comparisons were carried out: (i) between fractionated pools of proteins from vaginal fluid of healthy women (HF) versus fractionated pool of proteins from vaginal fluid of women affected by bacterial vaginosis (BVF); (ii) between whole pools of proteins from vaginal fluid of women affected by BV treated by administering different doses of rifaximin or placebo before (BV) and after (A-R, A-N, B-R, B-N, C-R, C-N, D-N) treatment. Fractioned pools of proteins are obtained, e.g., by separating the proteins by separation on membrane filtration with different membrane porosity, prior to MS/MS analysis.
Nine volumes of acetone: HCl (10:1) were added to the supernatant of the vaginal rinsing and proteins were precipitated by centrifuging at 12000 g for 10 min. The protein pellet was dissolved in 1 mL of 70% ethanol and the sample was spun at 12000 g for 10 min. One mL of acetone was added and the proteins were further precipitated by centrifugation at 12000 g for 5 min. After removing supernatant, pellet was dried by SpeedVac concentrator (Thermo Savant ISS110, Thermo Fisher Scientific, Waltham, Mass.) and then stored at −20° C.
Protein extract was quantified using the 2-D Quant Kit (GE Healthcare, Uppsala, Sweden) according to the manufacturer's instructions.
Patients who were diagnosed for BV at the study visit V1 were included in a multicentre, double-blind, randomised, placebo-controlled study (EudraCT: 2009-011826-32), that was performed to compare the efficacy of different doses of rifaximin vaginal tablets versus placebo for the treatment of BV. The patients underwent a randomisation visit and were distributed into 4 treatment groups: group A received 100 mg rifaximin vaginal tablet once daily for 5 days (n=10), group B received 25 mg rifaximin vaginal tablet once daily for 5 days (n=10), group C received 100 mg rifaximin vaginal tablet once daily for the first 2 days and placebo vaginal tablet for the remaining 3 days (n=9), group D received placebo vaginal tablet once daily for 5 days (n=10). Study medication was administered intra-vaginally at bedtime. After 7 to 10 days from the end of the therapy a follow-up visit (V3) was performed. Remission was evaluated at V3 according to Amsel's criteria (<3) and Gram stain Nugent score (≦3) (Table 1).
Standardized vaginal rinsings with 2 mL of saline were collected for analysis at V1 and V3 by flushing and re-aspirating the fluid through a 22 Gauge needle in the left, central and right upper vaginal vaults. The vaginal rinsings were subsequently stored at −80° C. until use.
MS/MS analysis was carried out for H and BV pools and for the whole BV, A-R, A-N, B-R, B-N, C-R, C-N and D-N pools containing 50 μg of protein each. […]

[1] = up-regulated in all pools (rifaximin and placebo) vs BV

## CO[C@H]1/C=C/O[C@@]2(C)Oc3c(C)c(O)c4c(O)c(c5c(nc6cc(C)ccn65)c4c3C2=O)NC(=O)/C(C)=C\C=C\[C@H](C)[C@H](O)[C@@H](C)[C@@H](O)[C@@H](C)[C@H](OC(C)=O)[C@@H]1C [rifaximin]
A-R pool, over-expressed in A-N, B-R, C-R and D-N pools
  fold change of Phosphoglycerate kinase from L. gasseri: −22.1 fold
Affected only in A-R pool
  expression change of Pyruvate kinase from L. delbrueckii subsp. bulgaricus: 1.5 ratio
Affected only in B-N pool
  expression change of Triosephosphate isomerase from L. delbrueckii subsp. bulgaricus: 2.4 ratio
down-regulated in all pools after rifaximin treatment
  median expression change of trigger factor from L. brevis: −2.5 ratio
Pool A-N after treatment
  Ratio X/H Ribosome-recycling factor OS = Bifidobacterium longum subsp. infantis (B7GQS1): −1.2
  Ratio X/H Trigger factor OS = Lactobacillus brevis (Q03QN6): −2.4
  Ratio X/H Triosephosphate isomerase OS = Lactobacillus delbrueckii subsp. bulgaricus (Q1GB25): −1.2
  Ratio X/H UPF0082 protein SAB0618 OS = Staphylococcus aureus (Q2YSR2): 5.6
  Ratio X/H Uncharacterized membrane protein YAL018C OS = Saccharomyces cerevisiae (P31379): 2.0
  Ratio X/H Uncharacterized protein yphG OS = Escherichia coli (P76585): −4.3
Pool A-R after treatment
  Ratio X/H Ribosome-recycling factor OS = Bifidobacterium longum subsp. infantis (B7GQS1): −4.5
  Ratio X/H Trigger factor OS = Lactobacillus brevis (Q03QN6): −3.8
  Ratio X/H Triosephosphate isomerase OS = Lactobacillus delbrueckii subsp. bulgaricus (Q1GB25): −1.3
  Ratio X/H UPF0082 protein SAB0618 OS = Staphylococcus aureus (Q2YSR2): 9.3
  Ratio X/H Uncharacterized membrane protein YAL018C OS = Saccharomyces cerevisiae (P31379): 1.1
  Ratio X/H Uncharacterized protein yphG OS = Escherichia coli (P76585): 1.1
Pool B-N after treatment
  Ratio X/H Ribosome-recycling factor OS = Bifidobacterium longum subsp. infantis (B7GQS1): −1.1
  Ratio X/H Trigger factor OS = Lactobacillus brevis (Q03QN6): −2.1
  Ratio X/H Triosephosphate isomerase OS = Lactobacillus delbrueckii subsp. bulgaricus (Q1GB25): 2.4
  Ratio X/H UPF0082 protein SAB0618 OS = Staphylococcus aureus (Q2YSR2): 9.2
  Ratio X/H Uncharacterized membrane protein YAL018C OS = Saccharomyces cerevisiae (P31379): 2.0
  Ratio X/H Uncharacterized protein yphG OS = Escherichia coli (P76585): −1.1
Pool B-R after treatment
  Ratio X/H Ribosome-recycling factor OS = Bifidobacterium longum subsp. infantis (B7GQS1): −2.4
  Ratio X/H Trigger factor OS = Lactobacillus brevis (Q03QN6): −2.2
  Ratio X/H Triosephosphate isomerase OS = Lactobacillus delbrueckii subsp. bulgaricus (Q1GB25): −1.2
  Ratio X/H UPF0082 protein SAB0618 OS = Staphylococcus aureus (Q2YSR2): 10.5
  Ratio X/H Uncharacterized membrane protein YAL018C OS = Saccharomyces cerevisiae (P31379): 2.9
  Ratio X/H Uncharacterized protein yphG OS = Escherichia coli (P76585): 1.1
Pool C-N after treatment
  Ratio X/H Ribosome-recycling factor OS = Bifidobacterium longum subsp. infantis (B7GQS1): 1.0
  Ratio X/H Trigger factor OS = Lactobacillus brevis (Q03QN6): −3.2
  Ratio X/H Triosephosphate isomerase OS = Lactobacillus delbrueckii subsp. bulgaricus (Q1GB25): −1.3
  Ratio X/H UPF0082 protein SAB0618 OS = Staphylococcus aureus (Q2YSR2): 5.9
  Ratio X/H Uncharacterized membrane protein YAL018C OS = Saccharomyces cerevisiae (P31379): 4.2
  Ratio X/H Uncharacterized protein yphG OS = Escherichia coli (P76585): −1.1
Pool C-R after treatment
  Ratio X/H Ribosome-recycling factor OS = Bifidobacterium longum subsp. infantis (B7GQS1): −2.8
  Ratio X/H Trigger factor OS = Lactobacillus brevis (Q03QN6): −2.7
  Ratio X/H Triosephosphate isomerase OS = Lactobacillus delbrueckii subsp. bulgaricus (Q1GB25): −1.4
  Ratio X/H UPF0082 protein SAB0618 OS = Staphylococcus aureus (Q2YSR2): 8.9
  Ratio X/H Uncharacterized membrane protein YAL018C OS = Saccharomyces cerevisiae (P31379): −1.6
  Ratio X/H Uncharacterized protein yphG OS = Escherichia coli (P76585): 1.0
Pools after treatment vs BV
  median down-regulation of Malate dehydrogenase from S. cerevisiae: −2.3 fold
Trend of down-regulation in response to antibiotic administration
  median expression change of enolases from L. acidophilus, L. delbrueckii subsp. bulgaricus, L. gasseri: −2.7 ratio
[1]
  median expression change of Phosphoglycerate kinase from U. parvum: 5.1 ratio
  median expression change of UPF0082 protein SAB0618 from S. aureus: 8.9 ratio

Source: patent publication US20160047819A1, “METHOD FOR DIAGNOSING VAGINAL INFECTIONS” (priority 2013, published 2016)
